Reference: ChEMBL document CHEMBL4376829, “Discovery and biological evaluation of vinylsulfonamide derivatives as highly potent, covalent TEAD autopalmitoylation inhibitors” (Eur J Med Chem, 2019)
The source made the active and inactive calls. The calls are words filed in the database; no cut-off is given here.

Tests used:
[1] = target: Transcriptional enhancer factor TEF-3 (Homo sapiens, UniProt Q15561); experiment: Inhibition of FITC-labeled YAP peptide (61 to 100 residues) binding to TEAD4 (unknown origin) preincubated for 1 hr followed by FITC-labeled YAP peptide addition and measured after 30 mins by fluorescence polarization assay
[2] = CoA reactivity in PBS assessed as CoA adduct formation at 1 mM after 8 hrs by UPLC-MS analysis
[3] = target: Fatty acid-binding protein, heart (Homo sapiens) (UniProt P05413); experiment: Binding affinity to FABP3 (unknown origin) at 1:1 ratio by fluorescence based thermal shift assay
Sequence of Fatty acid-binding protein, heart (Homo sapiens) (P05413 2-133 limits assumed): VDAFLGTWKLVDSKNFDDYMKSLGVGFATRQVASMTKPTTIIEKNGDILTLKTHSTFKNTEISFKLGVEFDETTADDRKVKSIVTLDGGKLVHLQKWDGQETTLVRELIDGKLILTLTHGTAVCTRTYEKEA

[4] = tested on: TGF-beta receptor type-1 (Homo sapiens), P36897 [T204D]; experiment: Inhibition of recombinant human TGFBR1 T204D mutant (200 to end residues) at 10 uM using casein as substrate measured after 40 mins in presence of [gamm33P]ATP by scintillation counting method relative to control
[5] = target: Serine/threonine-protein kinase/endoribonuclease IRE1 (Homo sapiens) (UniProt O75460); experiment: Inhibition of recombinant human IRE1 (465 to end residues) at 10 uM using myelin basic protein as substrate measured after 40 mins in presence of [gamma33P]ATP by scintillation counting method relative to control
Sequence of Serine/threonine-protein kinase/endoribonuclease IRE1 (Homo sapiens) (O75460 19-977 limits assumed): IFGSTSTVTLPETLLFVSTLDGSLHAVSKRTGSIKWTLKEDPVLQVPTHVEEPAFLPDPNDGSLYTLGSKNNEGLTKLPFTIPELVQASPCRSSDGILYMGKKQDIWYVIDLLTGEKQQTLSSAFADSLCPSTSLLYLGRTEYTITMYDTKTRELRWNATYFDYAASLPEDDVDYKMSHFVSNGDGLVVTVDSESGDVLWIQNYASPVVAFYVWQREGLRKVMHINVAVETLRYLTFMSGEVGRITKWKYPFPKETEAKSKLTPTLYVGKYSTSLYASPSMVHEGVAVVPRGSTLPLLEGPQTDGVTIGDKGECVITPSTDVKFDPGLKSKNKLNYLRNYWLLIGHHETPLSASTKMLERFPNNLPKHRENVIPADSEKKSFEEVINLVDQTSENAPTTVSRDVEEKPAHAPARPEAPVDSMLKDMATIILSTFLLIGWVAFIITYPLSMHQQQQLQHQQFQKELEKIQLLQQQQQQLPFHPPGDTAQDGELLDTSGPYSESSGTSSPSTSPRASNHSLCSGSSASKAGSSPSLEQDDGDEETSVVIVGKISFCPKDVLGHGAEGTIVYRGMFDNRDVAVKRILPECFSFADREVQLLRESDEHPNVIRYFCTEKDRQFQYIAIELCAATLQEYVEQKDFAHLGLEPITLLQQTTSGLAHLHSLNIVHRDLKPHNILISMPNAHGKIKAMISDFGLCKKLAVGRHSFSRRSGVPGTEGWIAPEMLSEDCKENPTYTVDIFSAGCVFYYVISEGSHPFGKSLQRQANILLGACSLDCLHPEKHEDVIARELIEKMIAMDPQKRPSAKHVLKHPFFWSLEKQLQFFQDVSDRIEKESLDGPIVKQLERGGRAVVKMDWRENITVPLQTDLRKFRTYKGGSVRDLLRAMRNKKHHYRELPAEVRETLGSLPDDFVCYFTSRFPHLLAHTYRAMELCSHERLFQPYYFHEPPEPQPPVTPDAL

[6] = target: Serine/threonine-protein kinase TAO1 (Homo sapiens) (UniProt Q7L7X3); experiment: Inhibition of recombinant human TAO1 (1 to 327 residues) at 10 uM using myelin basic protein as substrate measured after 40 mins in presence of [gamma33P]ATP by scintillation counting method relative to control
Sequence of Serine/threonine-protein kinase TAO1 (Homo sapiens) (Q7L7X3 whole entry, the tested form may be a part): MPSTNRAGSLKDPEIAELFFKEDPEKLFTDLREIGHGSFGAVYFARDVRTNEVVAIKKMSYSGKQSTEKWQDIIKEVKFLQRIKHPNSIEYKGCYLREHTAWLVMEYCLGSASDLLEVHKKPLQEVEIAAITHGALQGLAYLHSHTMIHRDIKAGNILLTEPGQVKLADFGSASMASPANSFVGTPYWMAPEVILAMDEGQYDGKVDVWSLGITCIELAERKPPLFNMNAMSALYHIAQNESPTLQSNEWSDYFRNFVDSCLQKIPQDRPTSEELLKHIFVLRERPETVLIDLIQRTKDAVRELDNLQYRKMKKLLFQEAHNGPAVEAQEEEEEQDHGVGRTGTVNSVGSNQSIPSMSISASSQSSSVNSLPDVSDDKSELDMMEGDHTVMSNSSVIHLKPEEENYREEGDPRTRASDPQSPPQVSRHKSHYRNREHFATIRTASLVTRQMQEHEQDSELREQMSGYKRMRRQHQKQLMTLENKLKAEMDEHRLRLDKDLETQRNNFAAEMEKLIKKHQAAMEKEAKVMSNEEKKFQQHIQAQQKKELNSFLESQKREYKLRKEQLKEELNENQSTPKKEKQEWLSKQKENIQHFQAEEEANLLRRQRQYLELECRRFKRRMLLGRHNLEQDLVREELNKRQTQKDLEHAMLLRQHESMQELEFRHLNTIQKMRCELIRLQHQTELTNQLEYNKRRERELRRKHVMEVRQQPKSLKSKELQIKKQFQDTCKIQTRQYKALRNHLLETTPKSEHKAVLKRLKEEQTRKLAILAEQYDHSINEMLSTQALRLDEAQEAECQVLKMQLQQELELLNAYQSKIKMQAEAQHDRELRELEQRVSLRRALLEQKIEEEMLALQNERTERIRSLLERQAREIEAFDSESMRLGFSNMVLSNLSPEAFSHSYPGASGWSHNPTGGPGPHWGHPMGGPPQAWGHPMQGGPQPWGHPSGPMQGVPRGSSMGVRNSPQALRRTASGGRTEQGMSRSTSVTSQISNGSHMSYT

[7] = target: Ribosomal protein S6 kinase alpha-1 (Homo sapiens) (UniProt Q15418); experiment: Inhibition of full length recombinant human Rsk1 at 10 uM using KKKNRTLSVA as substrate after 40 mins in presence of [gamma33P]ATP by scintillation counting method relative to control
[8] = target: Serine/threonine-protein kinase PLK1 (Homo sapiens) (UniProt P53350); experiment: Inhibition of full length recombinant human Plk1 at 10 uM using casein as substrate after 40 mins in presence of [gamma33P]ATP by scintillation counting method relative to control
[9] = target: Beta-adrenergic receptor kinase 1 (Homo sapiens) (UniProt P25098); experiment: Inhibition of full length recombinant human GRK2 at 10 uM using casein as substrate after 40 mins in presence of [gamma33P]ATP by scintillation counting method relative to control
Sequence of Beta-adrenergic receptor kinase 1 (Homo sapiens) (P25098 whole entry): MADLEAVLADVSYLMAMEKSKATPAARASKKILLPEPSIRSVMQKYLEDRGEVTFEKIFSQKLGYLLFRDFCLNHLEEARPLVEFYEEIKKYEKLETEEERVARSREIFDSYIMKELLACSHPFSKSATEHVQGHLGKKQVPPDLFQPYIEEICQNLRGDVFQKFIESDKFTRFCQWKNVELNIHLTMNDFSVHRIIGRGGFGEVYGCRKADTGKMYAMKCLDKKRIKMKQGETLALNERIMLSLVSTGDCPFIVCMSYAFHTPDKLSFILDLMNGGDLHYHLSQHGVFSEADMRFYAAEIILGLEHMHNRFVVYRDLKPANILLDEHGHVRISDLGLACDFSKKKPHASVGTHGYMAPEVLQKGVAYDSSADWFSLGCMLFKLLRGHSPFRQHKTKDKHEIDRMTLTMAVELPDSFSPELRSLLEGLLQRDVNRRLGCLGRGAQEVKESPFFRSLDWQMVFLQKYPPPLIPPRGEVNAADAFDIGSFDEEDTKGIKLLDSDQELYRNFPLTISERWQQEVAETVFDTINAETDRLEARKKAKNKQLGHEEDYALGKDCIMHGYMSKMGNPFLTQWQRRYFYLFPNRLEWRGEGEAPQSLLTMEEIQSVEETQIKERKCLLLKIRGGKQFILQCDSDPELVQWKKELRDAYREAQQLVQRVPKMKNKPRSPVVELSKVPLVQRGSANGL

[10] = target: Protein kinase C beta type (Homo sapiens) (UniProt P05771); experiment: Inhibition of recombinant human PKCbeta2 (2 to end residues) at 10 uM using histone H1 as substrate after 40 mins by in presence of [gamma33P]ATP by scintillation counting method relative to control
Sequence of Protein kinase C beta type (Homo sapiens) (P05771 2-671 limits assumed): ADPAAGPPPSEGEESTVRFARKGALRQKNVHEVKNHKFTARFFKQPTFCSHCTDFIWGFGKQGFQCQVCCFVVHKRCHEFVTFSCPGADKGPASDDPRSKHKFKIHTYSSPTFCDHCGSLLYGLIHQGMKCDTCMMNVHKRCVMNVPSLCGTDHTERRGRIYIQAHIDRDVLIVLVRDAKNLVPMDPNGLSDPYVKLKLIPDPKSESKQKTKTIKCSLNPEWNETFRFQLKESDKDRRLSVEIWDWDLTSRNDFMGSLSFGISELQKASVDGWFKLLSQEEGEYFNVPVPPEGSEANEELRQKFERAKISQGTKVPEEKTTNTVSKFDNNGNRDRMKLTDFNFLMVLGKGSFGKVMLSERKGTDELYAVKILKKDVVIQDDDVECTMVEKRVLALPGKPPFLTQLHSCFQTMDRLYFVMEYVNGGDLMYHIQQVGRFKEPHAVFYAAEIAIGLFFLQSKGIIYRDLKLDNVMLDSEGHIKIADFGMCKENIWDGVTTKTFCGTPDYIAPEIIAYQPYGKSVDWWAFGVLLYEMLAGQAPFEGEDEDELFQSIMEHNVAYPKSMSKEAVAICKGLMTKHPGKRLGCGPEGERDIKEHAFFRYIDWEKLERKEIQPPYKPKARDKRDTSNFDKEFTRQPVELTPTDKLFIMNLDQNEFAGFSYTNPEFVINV

[11] = organism: Homo sapiens; experiment: Inhibition of full-length recombinant human PKBalpha S478G mutant at 10 uM using GRPRTSSFAEGKK as substrate after 40 mins by in presence of [gamma33P]ATP by scintillation counting method relative to control
[12] = target: Serine/threonine-protein kinase pim-1 (Homo sapiens) (UniProt P11309); experiment: Inhibition of recombinant full-length human PIM1 at 10 uM using KKRNRTLTV as substrate measured after 40 mins in presence of [gamma33P]ATP by scintillation counting method relative to control
[13] = target: Phosphorylase b kinase gamma catalytic chain, skeletal muscle/heart isoform (Homo sapiens) (UniProt Q16816); experiment: Inhibition of full-length recombinant human PHKgamma1 at 10 uM using KKLNRTLSFAEPG as substrate after 120 mins by in presence of [gamma33P]ATP by scintillation counting method relative to control
Sequence of Phosphorylase b kinase gamma catalytic chain, skeletal muscle/heart isoform (Homo sapiens) (Q16816 whole entry, looked up, canonical isoform): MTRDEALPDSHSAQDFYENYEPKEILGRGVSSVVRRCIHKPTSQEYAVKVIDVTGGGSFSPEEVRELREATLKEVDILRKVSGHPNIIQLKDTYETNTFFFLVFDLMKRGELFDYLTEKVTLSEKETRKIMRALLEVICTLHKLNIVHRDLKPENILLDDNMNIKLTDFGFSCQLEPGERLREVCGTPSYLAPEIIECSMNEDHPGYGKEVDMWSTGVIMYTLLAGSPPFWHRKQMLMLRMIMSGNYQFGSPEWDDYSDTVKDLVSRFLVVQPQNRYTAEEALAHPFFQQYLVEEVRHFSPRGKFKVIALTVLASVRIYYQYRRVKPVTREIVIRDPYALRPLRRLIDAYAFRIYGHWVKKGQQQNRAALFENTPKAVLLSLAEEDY

[14] = target: Tyrosine-protein kinase CSK (Homo sapiens) (UniProt P41240); experiment: Inhibition of recombinant full length human CSK at 10 uM using poly(Glu,Tyr) as substrate measured after 40 mins in presence of [gamma33P]ATP by scintillation counting method relative to control
[15] = target: Casein kinase I isoform delta (Homo sapiens) (UniProt P48730); experiment: Inhibition of recombinant human CK1delta (1 to 294 residues) at 10 uM using KRRRALS(p)VASLPGL as substrate measured after 40 mins in presence of [gamma33P]ATP by scintillation counting method relative to control
[16] = target: Serine/threonine-protein kinase 38-like (Homo sapiens) (UniProt Q9Y2H1); experiment: Inhibition of recombinant human NDR2 (83 to end residues) at 10 uM using RSRSRSRSRSRSRSR as substrate measured after 40 mins in presence of [gamma33P]ATP by scintillation counting method relative to control
Sequence of Serine/threonine-protein kinase 38-like (Homo sapiens) (Q9Y2H1 2-464 limits assumed): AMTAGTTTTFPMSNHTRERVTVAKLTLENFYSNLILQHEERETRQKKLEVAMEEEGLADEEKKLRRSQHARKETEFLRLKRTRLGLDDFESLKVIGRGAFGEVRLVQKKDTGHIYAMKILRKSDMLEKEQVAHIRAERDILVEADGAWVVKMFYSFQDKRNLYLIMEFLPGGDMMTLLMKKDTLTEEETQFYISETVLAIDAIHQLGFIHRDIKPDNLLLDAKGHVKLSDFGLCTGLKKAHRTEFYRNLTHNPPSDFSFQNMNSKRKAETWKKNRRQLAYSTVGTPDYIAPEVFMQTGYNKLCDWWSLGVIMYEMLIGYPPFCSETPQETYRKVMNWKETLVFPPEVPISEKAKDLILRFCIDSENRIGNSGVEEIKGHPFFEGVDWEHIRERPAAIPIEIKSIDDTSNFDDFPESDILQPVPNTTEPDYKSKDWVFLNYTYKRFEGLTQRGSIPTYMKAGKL

[17] = target: Serine/threonine-protein kinase 26 (Homo sapiens) (UniProt Q9P289); experiment: Inhibition of recombinant human MST4 (4 to 304 residues) at 10 uM using RLGRDKYKTLRQIRQ as substrate measured after 40 mins in presence of [gamma33P]ATP by scintillation counting method relative to control
Sequence of Serine/threonine-protein kinase 26 (Homo sapiens) (Q9P289 2-416 limits assumed): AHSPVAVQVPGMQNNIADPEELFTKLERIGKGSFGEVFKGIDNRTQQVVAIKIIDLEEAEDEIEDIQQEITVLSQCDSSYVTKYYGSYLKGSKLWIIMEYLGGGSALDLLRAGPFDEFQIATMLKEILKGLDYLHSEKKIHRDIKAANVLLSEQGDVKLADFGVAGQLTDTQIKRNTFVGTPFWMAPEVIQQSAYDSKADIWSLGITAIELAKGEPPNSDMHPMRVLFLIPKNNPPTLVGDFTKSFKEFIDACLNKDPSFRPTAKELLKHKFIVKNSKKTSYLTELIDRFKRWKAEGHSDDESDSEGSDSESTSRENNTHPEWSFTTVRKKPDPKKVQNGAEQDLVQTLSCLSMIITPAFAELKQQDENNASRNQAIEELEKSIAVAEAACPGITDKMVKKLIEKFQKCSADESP

[18] = target: Dual specificity mitogen-activated protein kinase kinase 2 (Homo sapiens) (UniProt P36507); experiment: Inhibition of recombinant full-length human MEK2 at 10 uM using MBP as substrate measured after 40 mins in presence of [gamma33P]ATP by scintillation counting method relative to control
[19] = target: Leucine-rich repeat serine/threonine-protein kinase 2 (Homo sapiens) (UniProt Q5S007); experiment: Inhibition of recombinant human LRRK2 (970 to end residues) at 10 uM using RLGRDKYKTLRQIRQ as substrate measured after 40 mins in presence of [gamma33P]ATP by scintillation counting method relative to control
[20] = target: Tyrosine-protein kinase BTK (Homo sapiens) (UniProt Q06187); experiment: Inhibition of full-length recombinant human BTK at 10 uM using KVEKIGEGTYGVVYK as substrate measured after 40 mins in presence of [gamma33P]ATP by scintillation counting method relative to control
[21] = target: Serine-protein kinase ATM (Homo sapiens) (UniProt Q13315); experiment: Inhibition of recombinant full-length human ATM at 10 uM using GST-cMyc-p53 as substrate measured after 40 mins by ELISA method relative to control
[22] = target: Serine/threonine-protein kinase VRK1 (Homo sapiens) (UniProt Q99986); experiment: Inhibition of human VRK1 at 10 uM by radiometric assay relative to control
[23] = target: Tyrosine-protein kinase Yes (Homo sapiens) (UniProt P07947); experiment: Inhibition of recombinant full-length human Yes at 10 uM using poly(Glu, Tyr) 4:1 as substrate measured after 40 mins in presence of [gamma33P]ATP by scintillation counting method relative to control
[24] = target: DNA (cytosine-5)-methyltransferase 1 (Homo sapiens) (UniProt P26358); experiment: Inhibition of human DNMT1 at 10 uM after 1 hr by radioisotope-based assay relative to control
[25] = target: Histone-lysine N-methyltransferase SETD7 (Homo sapiens) (UniProt Q8WTS6); experiment: Inhibition of human SET7 at 10 uM relative to control

C=CS(=O)(=O)Nc1ccc(Cc2ccc3ccccc3c2)cc1
Activity [1]: inactive | Activity [2]: inactive | Activity [3]: Active | inhibition [4]: -2% | inhibition [5]: -4% | inhibition [6]: -10% | inhibition [7]: 22% | inhibition [8]: -10% | inhibition [9]: -9% | inhibition [10]: 4% | inhibition [11]: 9% | inhibition [12]: -3% | inhibition [13]: -3% | inhibition [14]: -1% | inhibition [15]: 3% | inhibition [16]: -6% | inhibition [17]: 1% | inhibition [18]: -9% | inhibition [19]: -10% | inhibition [20]: 5% | inhibition [21]: 2% | inhibition [22]: 3% | inhibition [23]: 3% | inhibition [24]: 15% | inhibition [25]: 2%
